For the first experiment, the target named is GTPase KRas [G12D,C118A] (Homo sapiens, UniProt P01116, C118A/G12D). Nature of the experiment: Coupled Nucleotide Exchange Assay. As to the method: Following compound pre-incubation, purified SOS protein (aa 564-1049) and GTP (Roche 10106399001) were added to the assay wells and incubated for an additional 30 min. To determine the extent of inhibition of SOS-mediated nucleotide exchange, purified GST-tagged cRAF (aa 1-149), nickel chelate AlphaLISA acceptor beads (PerkinElmer AL108R), and AlphaScreen glutathione donor beads (PerkinElmer 6765302) were added to the assay wells and incubated for 10 minutes. The assay plates were then read on a PerkinElmer EnVision Multilabel Reader, using AlphaScreen technology, and data were analyzed using a 4-parameter logistic model to calculate IC50 values.
Sequence of GTPase KRas [G12D,C118A] (P01116 whole entry G12D/C118A, looked up, the tested form may be a part): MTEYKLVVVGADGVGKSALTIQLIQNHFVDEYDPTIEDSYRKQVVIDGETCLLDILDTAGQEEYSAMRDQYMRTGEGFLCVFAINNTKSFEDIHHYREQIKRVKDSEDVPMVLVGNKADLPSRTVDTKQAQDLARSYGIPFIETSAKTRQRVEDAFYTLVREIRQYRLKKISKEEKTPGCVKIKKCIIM
Sequence of GTPase KRas [G12D] (P01116 whole entry G12D): as the sequence (P01116 whole entry G12D/C118A, looked up, the tested form may be a part) above, with A118C counted along it
`Cc1cc2[nH]ncc2c2c1CCCOC(=O)N1CC[C@@H]3CCN(C[C@@H]31)c1nc(OC[C@@]34CCCN3C[C@H](F)C4)nc3c(F)c-2ncc13` (mixture of isomers) [US20240294551, Example 75]: the IC50 turned out to be 13 nM.

On to `Cc1cc2[nH]ncc2c2c1CCCOC(=O)O[C@@H]1COCCN(C1)c1nc(OC[C@@]34CCCN3C[C@H](F)C4)nc3c(F)c-2c(F)cc13` [US20240294551, Example 102], for which 2 nM corresponded to half-maximal inhibition (IC50).

The compound `Fc1c2ncc3c(nc(OC[C@@]45CCCN4C[C@H](F)C5)nc13)N1CCC[C@@H](CSCCCCc3c(Cl)cc4[nH]ncc4c3-2)C1` [US20240294551, Example 143] yielded an IC50 of 2 nM.

The compound `Fc1c2ncc3c(nc(OC[C@@]45CCCN4C[C@H](F)C5)nc13)N1CCC[C@H](C1)c1coc(n1)CCCc1c(Cl)cc3[nH]ncc3c1-2` [US20240294551, Example 157] displayed an IC50 of 1 nM.

Consider `Cc1cc2[nH]ncc2c2c1CCCOC(=O)O[C@@H]1COCCN(C1)c1nc(OC[C@@]34CCCN3C[C@H](F)C4)nc3c(F)c-2ccc13` [US20240294551, Example 192], for which the IC50 was found to be 2 nM.

As for `CN(C)CC1(COc2nc3c4cnc(c(F)c4n2)-c2c(c(Cl)cc4[nH]ncc24)CCCOC(=O)O[C@@H]2COCCN3C2)CC1` [US20240294551, Example 195], the IC50 was found to be 2 nM. This lies in the single-digit nanomolar range.

`Fc1c2ncc3c(nc(OC[C@@]45CCCN4C[C@H](F)C5)nc13)N1CCOC[C@H](C1)c1noc(n1)CCCc1c(Cl)cc3[nH]ncc3c1-2` [US20240294551, Example 381] gave an IC50 of 1 nM.

The compound `O[C@@H]1CCOCCc2c(Cl)cc3[nH]ncc3c2-c2ncc3c(nc(OC[C@@]45CCCN4C[C@H](F)C5)nc3c2F)N2CCC[C@@H]1C2` [US20240294551, Example 404] yielded a half-inhibitory concentration (IC50) of 6 nM.

The next experiment addresses GTPase KRas [G12D] (Homo sapiens, UniProt P01116, G12D). As to the kind of experiment: TR-FRET Assay. As to the method: Compounds of interest were prepared in a dose-response titration in DMSO, and 80 nL were added via Labcyte Echo to each well of a 384-well plate (Perkin Elmer 6008280). The His-tagged KRAS G12D protein (Amgen) was diluted to 20 nM in Assay Buffer (20 mM HEPES, pH 7.4, 10 mM MgCl2, 50 mM NaCl, 0.1% BSA, 0.01% Tween-20, 10 μM GDP) and 2 μL was added to the appropriate wells of the 384-well plate. The plate was incubated for 30 minutes at room temperature. Biotinylated KRPep-2d substrate (Amgen) was diluted to 20 nM in Assay Buffer and 2 μL was added to all wells and incubated for 1 hour at room temperature. Detection Reagent (0.4 nM LANCE Eu-W1024 Anti-6×His (Perkin Elmer AD0401), 5 nM streptavidin-d2 (Cisbio 610SADLA)) was prepared in Assay Buffer, then 4 μL was added to the plate and incubated for 1 hour at room temperature. Plates were read using PerkinElmer EnVision (ex: 320 nm, em1: 665 nm, em2: 615 nm) and em1/em2 data was used to generate curve fits using a 4-parameter logistic model to calculate IC50 values.
In general terms: TR-FRET usually uses a lanthanide donor and a delayed reading to cut background.
Turning to `Cc1cc2[nH]ncc2c2c1CCCOC(=O)N1CC[C@@H]3CCN(C[C@@H]31)c1nc(OC[C@@]34CCCN3C[C@H](F)C4)nc3c(F)c-2ncc13` (mixture of isomers) [US20240294551, Example 75], half-maximal inhibition (IC50) was put at 20 nM.

Turning to `Cc1cc2[nH]ncc2c2c1CCCOC(=O)O[C@@H]1COCCN(C1)c1nc(OC[C@@]34CCCN3C[C@H](F)C4)nc3c(F)c-2c(F)cc13` [US20240294551, Example 102], half-maximal inhibition (IC50) was put at 3 nM.

The compound `Fc1c2ncc3c(nc(OC[C@@]45CCCN4C[C@H](F)C5)nc13)N1CCC[C@@H](CSCCCCc3c(Cl)cc4[nH]ncc4c3-2)C1` [US20240294551, Example 143] gave a concentration for half-maximal inhibition (IC50) of 3 nM.

On to `Fc1c2ncc3c(nc(OC[C@@]45CCCN4C[C@H](F)C5)nc13)N1CCC[C@H](C1)c1coc(n1)CCCc1c(Cl)cc3[nH]ncc3c1-2` [US20240294551, Example 157], for which the IC50 stood at 2 nM.

Compound `Cc1cc2[nH]ncc2c2c1CCCOC(=O)O[C@@H]1COCCN(C1)c1nc(OC[C@@]34CCCN3C[C@H](F)C4)nc3c(F)c-2ccc13` [US20240294551, Example 192] gave an IC50 of 4 nM.

`CN(C)CC1(COc2nc3c4cnc(c(F)c4n2)-c2c(c(Cl)cc4[nH]ncc24)CCCOC(=O)O[C@@H]2COCCN3C2)CC1` [US20240294551, Example 195] registered an IC50 of 4 nM. That is a single-digit nanomolar value.

In turn, `Fc1c2ncc3c(nc(OC[C@@]45CCCN4C[C@H](F)C5)nc13)N1CCOC[C@H](C1)c1noc(n1)CCCc1c(Cl)cc3[nH]ncc3c1-2` [US20240294551, Example 381] registered an IC50 of 5 nM.

`O[C@@H]1CCOCCc2c(Cl)cc3[nH]ncc3c2-c2ncc3c(nc(OC[C@@]45CCCN4C[C@H](F)C5)nc3c2F)N2CCC[C@@H]1C2` [US20240294551, Example 404] displayed a half-inhibitory concentration (IC50) of 10 nM.

As usually defined, the IC50 is the midpoint of a concentration-inhibition curve.

(Values after BindingDB's records for patent US20240294551 (Amgen, 2024).)
